Test results reported in patent publication US10138275B2, “Crystalline powder of cyclic peptide compound, preparation method for same, and uses thereof” (SHANGHAI TECHWELL BIOPHARMACEUTICAL CO., LTD, priority 2014, dated 2018).
Starred links: 1 amine or outer side, 2 acyl side, 3 side chain; linkers in the order of their positions; H or OH if unused. Positions of bridges follow the written chain, without caps; N, C: chain ends. Non-standard residues stand in square brackets, D forms with d. Residues, ends and D or L forms follow the SMILES beside them. *: point of attachment. hTyr(3S-OH,4S-OH,3'-OSO3H) = N[C@H](C(=O)O)[C@H](O)[C@@H](O)c1ccc(O)c(OS(=O)(=O)O)c1; Orn(4R-OH,5R-OH) = O=C([C@H](C[C@@H](O)[C@@H](O)N[*:3])N[*:1])[*:2]; Pro(3S-OH,4S-Me) = C[C@H]1CN[C@H](C(=O)O)[C@H]1O; X1 = CCCCCOc1ccc(-c2cc(-c3ccc(C(=O)*)cc3)no2)cc1; Gln(3R-OH) = NC(=O)C[C@@H](O)[C@H](N)C(=O)O; Hyp = O=C(O)[C@@H]1C[C@@H](O)CN1

Tests used:
Assay type in all cases: physicochemical
[1] = Ratio of dry weight to wet weight (Dry/Wet) of filtered solids; settings: wet solids weighed after filtration, before drying
Source text: As used herein, the term “Dry/Wet” and “ratio of dry weight to wet weight” can be used interchangeably, both of which refer to the ratio of the weight of a compound without solvent(s) to the weight of the compound with solvent(s). In the present invention, wet weight of crystals is obtained by filtering the crystallized solids until no noticeable droplet outflows and weighing the solids.

[2] = Vacuum-drying at 25° C. with a water system until no organic solvent detected by GC; purity by HPLC
Source text: High performance liquid chromatography (HPLC) is a common method for determining the purity of a compound, wherein a liquid is used as the mobile phase and a high-pressure transfusion system is used for pumping the mobile phase, such as single solvents with different polarities, a mixture of solvents at different proportions, or buffers, into a column packed with a stationary phase. Each component is separated in the column, and then enters into a detector for detection, thereby analyzing a sample. In the present invention, HPLC is used for determining the purity of the compound of formula I and studying the stability of a sample. Conditions of the HPLC method are listed as follows:
Analysis Column: YMC-ODS 250×4.6 mm, 5 μm;
Mobile phase: acetonitrile:phosphate buffer (pH 3.0)=45:70;
Column temperature: 35° C.;
Diluent: aqueous phosphate buffer;
Detection wavelength: 210 nm;
Gas chromatography (GC) used to separate and measure trace impurities in a compound is an accurate, qualitative and quantitative method of analysis. In the present invention, the content of organic solvents in the crystalline powder of the compound of formula I obtained in the present invention is measured by gas chromatography (GC).
5 g of solids were prepared according to the methods of Examples 2-10 and Comparative Examples 1-3 respectively, placed at 25° C., and vacuum-dried together with a water system until no organic solvent was detected through GC. The time for drying was compared, and the purity of the sample was analyzed.

[3] = Exposure of dried B82 crystal to the environment (moisture uptake, stability)
Source text: Before drying of the crystals, the content of solvent in the compound of formula I (Dry/Wet) was about 0.25, and a large amount of organic solvent was trapped in the crystal. To render the content of solvent in compliance with the requirements for active pharmaceutical ingredients (API), the drying temperature or the drying time has to be increased during the drying process. Such drying process, however, will increase the degradation product of the compound of formula I, seriously affecting the quality and stability of API.

[4] = Particle size distribution (d10, d50) by Malvern particle size analyzer / laser diffraction
Method: […] Wherein, d10 and d50 are means known for indicating the particle size distribution. d50 refers to a value of particle size, and the size of 50 vol/% of particles is smaller than said value. D10 refers to a value of particle size, and the size of 10 vol/% of particles is smaller than said value. The preferred method for determining d10 and d50 is laser diffraction, d50 of the crystalline powder of the compound of formula I according to the present invention is determined as 10-100 um, and d10 is determined as 1-9 um. Preferably, d50 of the crystalline powder is 20-50 um, and d10 thereof is 1-5 um. Before solid-liquid separation, d50 of the crystalline powder of the compound of formula I is 10-100 um, and d10 thereof is 1-9 um. Preferably, d50 of the crystalline powder is 20-50 um, and d10 thereof is 3-6 um.

[5] = Filtration through a Buchner funnel until no noticeable droplet outflowed
Source text: In this example, the precipitated solids from Examples 2-10 and Comparative Examples 1-3 were filtered through a Buchner funnel until no noticeable droplet outflowed, and the filtration processes were compared.

[6] = Bulk density of powder by cylinder measurement; settings: after drying
Method: “Bulk density of powder” is a measurement standard for the relative importance of the interaction between microparticles by comparing the bulk density and tapped density of the powder. Methods for measuring bulk density of powder are known in the art; for example, it can be determined by cylinder measurement, volumetric measurement, and container measurement. Bulk density of the crystalline powder of the compound of formula I according to the present invention is determined as less than 0.7 g/mL, preferably less than 0.6 g/mL, most preferably less than 0.5 g/mL, by cylinder measurement.

In the case of `CCCCCOc1ccc(-c2cc(-c3ccc(C(=O)N[C@H]4C[C@@H](O)[C@@H](O)NC(=O)[C@@H]5[C@@H](O)[C@@H](C)CN5C(=O)[C@H]([C@H](O)CC(N)=O)NC(=O)[C@H]([C@H](O)[C@@H](O)c5ccc(O)c(OS(=O)(=O)[O-])c5)NC(=O)[C@@H]5C[C@@H](O)CN5C(=O)[C@H]([C@@H](C)O)NC4=O)cc3)no2)cc1.[Na+]` [Comparative Example 1, reference compound] (X1-[Orn(4R-OH,5R-OH)]T[Hyp][hTyr(3S-OH,4S-OH,3'-OSO3H)][Gln(3R-OH)][Pro(3S-OH,4S-Me)]; lactam 1-C), the “ratio of dry weight to wet weight (Dry/Wet)” value [1] is reported as 0.25, the “ratio of dry weight to wet weight (Dry/Wet)” value ([1]; listed as B82-type crystals) is reported as “about 0.25” and the “time Needed (for drying)” value ([2]; 25° C., vacuum-drying with a water system until no organic solvent detected by GC) is reported as 25 h. The Purity before drying ([2]; HPLC, 5 g of solids) was 99.26%, the Purity after drying ([2]; HPLC, vacuum-dried at 25° C. with a water system until no organic solvent detected by GC) was 97.96% and the “moisture absorption when exposed to the environment” value [3] was “inclined to absorb moisture”. For the same compound, the “stability when exposed to the environment” value [3] was “poor stability”, the “d50 of the obtained crystals” value ([4]; B82-type crystal prepared per Example 1 of WO03/018615) was 0.2-1.0 um and the “d10, particle size of the crystalline powder” value ([4]; after drying) was 0.25 um. The “d50, particle size of the crystalline powder” value ([4]; after drying) was 0.7 um, the Time for filtration [5] was 90 min and the Bulk density [6] was 0.85 g/mL. For the same compound, the Bulk density ([6]; listed as B82-type crystals) was “about 0.8 g/mL”.
